# Data as given in patent US7326710B2, “Aralkyl formyl-alkyl piperazine derivatives and their uses as a cerebral nerve protective agent” (Shanghai Institute of Pharmaceutical Industry, priority 2002, dated 2008).
# Assays:
# [1] = tested on: focal cerebral ischemia in rats; experiment: Focal cerebral infarction, electrical coagulation to occlude MCA; assay type: in vivo; parameters: The neurological deficit score After the operation / The neurological deficit score 24 h: scale not given here; conditions: Nimodipine, dose not given
# Method: a. The Focal Cerebral-Infarction of Using Electrical Coagulation to Occlude MCA:
# For the 5 mg/kg group, the percentage of the rat's infarct size was decreased, but the difference is not significant (p=0.098). The effect is not significant for the Nimodipine mg/kg.
# [2] = tested on: focal cerebral ischemia in rats; experiment: Focal cerebral ischemia in rats by occlusion of middle cerebral artery (MCA); assay type: in vivo; conditions: 20 mg/kg p.o.
# Method: The focal ischemia rat model by occlusion of middle cerebral artery (MCA) was used to determine the protective effects of the compounds on focal cerebral ischemia. The infarct size after focal cerebral ischemia and the weight percentage of cerebral hemisphere were calculated to evaluate the compounds' effects on focal cerebral ischemia.
# [3] = tested on: global cerebral ischemia-reperfusion injury in rats; experiment: Global cerebral ischemia-reperfusion in rats, four arteries reversible occlusion; assay type: in vivo; conditions: Nimodipine 1 mg/kg
# Excerpt: The effect of IV-23 on cerebral ischemia-reperfusion in rats was studied using four arteries reversible occlusion by measuring the recovering time of the electroencephalogram and the righting reflex (a short time indicates a strong effect).
# [4] = tested on: global cerebral ischemia in rats; experiment: Global cerebral ischemia in rats, bilateral common carotid artery occlusion with exsanguine hypotension; assay type: in vivo; conditions: reperfusion after 10 min occlusion
# Excerpt: The animal models of the bilateral common carotid artery occlusion with exsanguine hypotension in the rats were used to investigate the effect against global cerebral ischemia.
# Methods: The animals were administrated four compounds (IV-2, 23, 34, 36) orally for 3 days before the experiment. […]
# [5] = tested on: primary culture of rat cerebral cortical neuronal cells; experiment: Effect of NMDA on neurons, LDH activity in supernatant; assay type: cell-based; conditions: n = 12
# Excerpt: Primary culture of rat cerebral cortical neuronal cells were used. […] This is further evidence that IV-23 is a new NMDA receptor antagonist, and has anti-cerebral ischemic injury functions as well.
smiles,measurement,setting,value
"COCCOC(=O)C1=C(C)NC(C)=C(C(=O)OC(C)C)C1c1cccc([N+](=O)[O-])c1 (stereo not shown) [Nimodipine, reference compound]",The neurological deficit score 24 h,[1],8.3 ± 2.0
same,The neurological deficit score After the operation,[1],9.7 ± 0.5
same,The percentage of infarction (%),[1],20.5 ± 6.8 %
same,The weight of infarct area,[1],0.15 ± 0.05 g
same,Infarct volume,[2],0.188 ± 0.013 g
same,Neurological deficit After operation,[2],9.3 ± 1.7
same,Neurological deficit 24 h,[2]; 24 h after operation,9.0 ± 4.1
same,Time for electroencephalogram to disappear(S),[3],396.0 ± 559.8^Δ S
same,Time for electroencephalogram to recover (S),[3],3264.0 ± 336.4^Δ S
same,Time for righting reflex to recover (S),[3],1284.0 ± 1319.8^Δ S
same,Recovery time of EEG,[4]; Nimodipine 1 mg/kg positive control,13.49 ± 5.55 min
"O=C(CN1CCN(CC(O)c2ccccc2)CC1)c1ccccc1 (stereo not shown) [IV-36, N^1-phenacyl-N^4-(2-phenylethyl-2-ol) piperazine]",Recovery time of EEG,[4]; 20 mg/kg orally for 3 days,20.10 min
"CN[C@H](CC(=O)O)C(=O)O [NMDA, N-methyl-D-aspartate]",LDH activities (U/g protein) (mean ± SEM),[5]; NMDA 0.1 mmol/L,1.51 ± 0.25 U/g protein
same,LDH activities (U/g protein) (mean ± SEM),[5]; NMDA 0.5 mmol/L,1.63 ± 0.19 U/g protein
same,LDH activities (U/g protein) (mean ± SEM),[5]; NMDA 1 mmol/L,1.74 ± 0.17 U/g protein
same,LDH activities (U/g protein) (mean ± SEM),[5]; NMDA 2 mmol/L,2.38 ± 0.31 U/g protein
